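Five compound concentrations were applied to cells in 96-well plates for 48 hours; endpoints were derived by simple linear interpolation of the resulting dose-response curve. TGI is the concentration that stops growth completely.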
Experiments:
Assay in all cases: NCI tumour cell line growth inhibition, 48 h
786-0 renal = system: 786-0 renal
A498 renal = system: A498 renal
A549 NSCLC = system: A549 NSCLC
ACHN renal = system: ACHN renal
CAKI-1 renal = system: CAKI-1 renal
CCRF-CEM leukemia = system: CCRF-CEM leukemia
COLO 205 colon = system: COLO 205 colon
DLD-1 colon = system: DLD-1 colon
DMS 114 small cell lung = system: DMS 114 small cell lung
DMS 273 small cell lung = system: DMS 273 small cell lung
EKVX NSCLC = system: EKVX NSCLC
HCC-2998 colon = system: HCC-2998 colon
HCT-116 colon = system: HCT-116 colon
HCT-15 colon = system: HCT-15 colon
HL-60(TB) leukemia = system: HL-60(TB) leukemia
HOP-18 NSCLC = system: HOP-18 NSCLC
HOP-62 NSCLC = system: HOP-62 NSCLC
HT29 colon = system: HT29 colon
IGROV1 ovarian = system: IGROV1 ovarian
K-562 leukemia = system: K-562 leukemia
KM12 colon = system: KM12 colon
KM20L2 colon = system: KM20L2 colon
LOX IMVI melanoma = system: LOX IMVI melanoma
LXFL 529 NSCLC = system: LXFL 529 NSCLC
M14 melanoma = system: M14 melanoma
M19-MEL melanoma = system: M19-MEL melanoma
MALME-3M melanoma = system: MALME-3M melanoma
MOLT-4 leukemia = system: MOLT-4 leukemia
NCI-H226 lung = system: NCI-H226 lung
NCI-H23 lung = system: NCI-H23 lung
NCI-H460 lung = system: NCI-H460 lung
NCI-H522 lung = system: NCI-H522 lung
OVCAR-3 ovarian = system: OVCAR-3 ovarian
OVCAR-4 ovarian = system: OVCAR-4 ovarian
OVCAR-5 ovarian = system: OVCAR-5 ovarian
OVCAR-8 ovarian = system: OVCAR-8 ovarian
RPMI-8226 leukemia = system: RPMI-8226 leukemia
RXF 393 renal = system: RXF 393 renal
SF-268 CNS = system: SF-268 CNS
SF-295 CNS = system: SF-295 CNS
SF-539 CNS = system: SF-539 CNS
SK-MEL-2 melanoma = system: SK-MEL-2 melanoma
SK-MEL-28 melanoma = system: SK-MEL-28 melanoma
SK-MEL-5 melanoma = system: SK-MEL-5 melanoma
SK-OV-3 ovarian = system: SK-OV-3 ovarian
SN12C renal = system: SN12C renal
SNB-19 CNS = system: SNB-19 CNS
SNB-75 CNS = system: SNB-75 CNS
SNB-78 CNS = system: SNB-78 CNS
SR leukemia = system: SR leukemia
SW-620 colon = system: SW-620 colon
TK-10 renal = system: TK-10 renal
U251 CNS = system: U251 CNS
UACC-257 melanoma = system: UACC-257 melanoma
UACC-62 melanoma = system: UACC-62 melanoma
UO-31 renal = system: UO-31 renal
XF 498 CNS = system: XF 498 CNS
BT-549 breast = system: BT-549 breast
DU-145 prostate = system: DU-145 prostate
HOP-92 NSCLC = system: HOP-92 NSCLC
MCF7 breast = system: MCF7 breast
MDA-MB-231 breast = system: MDA-MB-231 breast
MDA-MB-435 = system: MDA-MB-435
MDA-N = system: MDA-N
NCI/ADR-RES ovarian = system: NCI/ADR-RES ovarian
PC-3 prostate = system: PC-3 prostate
T-47D breast = system: T-47D breast

In the case of `COC(=O)C(Cc1nc2ccc(Cl)cc2[nH]c1=O)/C(=N/O)C(=O)Nc1cccc(Cl)c1C` (stereo not drawn), the TGI (786-0 renal) was over 100 µM, the TGI (A498 renal) was over 100 µM and the TGI (A549 NSCLC) was over 100 µM. It also gave a TGI (ACHN renal) of over 100 µM, a TGI (CAKI-1 renal) of over 100 µM and a TGI (CCRF-CEM leukemia) of over 100 µM. It also gave a TGI (COLO 205 colon) of over 100 µM, a TGI (DLD-1 colon) of over 100 µM and a TGI (DMS 114 small cell lung) of over 100 µM. It also gave a TGI (DMS 273 small cell lung) of over 100 µM, a TGI (EKVX NSCLC) of over 100 µM and a TGI (HCC-2998 colon) of over 100 µM. It also gave a TGI (HCT-116 colon) of over 100 µM, a TGI (HCT-15 colon) of over 100 µM and a TGI (HL-60(TB) leukemia) of over 100 µM. It also gave a TGI (HOP-18 NSCLC) of over 100 µM, a TGI (HOP-62 NSCLC) of over 100 µM and a TGI (HT29 colon) of over 100 µM. The TGI (IGROV1 ovarian) was over 100 µM, the TGI (K-562 leukemia) was over 100 µM and the TGI (KM12 colon) was over 100 µM. It also gave a TGI (KM20L2 colon) of over 100 µM, a TGI (LOX IMVI melanoma) of over 100 µM and a TGI (LXFL 529 NSCLC) of over 100 µM. It also gave a TGI (M14 melanoma) of over 100 µM, a TGI (M19-MEL melanoma) of over 100 µM and a TGI (MALME-3M melanoma) of over 100 µM. It also gave a TGI (MOLT-4 leukemia) of over 100 µM, a TGI (NCI-H226 lung) of over 100 µM and a TGI (NCI-H23 lung) of over 100 µM. It also gave a TGI (NCI-H460 lung) of over 100 µM, a TGI (NCI-H522 lung) of over 100 µM and a TGI (OVCAR-3 ovarian) of over 100 µM. For the same molecule, the TGI (OVCAR-4 ovarian) was over 100 µM, the TGI (OVCAR-5 ovarian) was over 100 µM and the TGI (OVCAR-8 ovarian) was over 100 µM. For the same molecule, the TGI (RPMI-8226 leukemia) was over 100 µM, the TGI (RXF 393 renal) was over 100 µM and the TGI (SF-268 CNS) was over 100 µM. The TGI (SF-295 CNS) was over 100 µM, the TGI (SF-539 CNS) was over 100 µM and the TGI (SK-MEL-2 melanoma) was over 100 µM. It also gave a TGI (SK-MEL-28 melanoma) of over 100 µM, a TGI (SK-MEL-5 melanoma) of over 100 µM and a TGI (SK-OV-3 ovarian) of over 100 µM. It also gave a TGI (SN12C renal) of over 100 µM, a TGI (SNB-19 CNS) of over 100 µM and a TGI (SNB-75 CNS) of over 100 µM. For the same molecule, the TGI (SNB-78 CNS) was over 100 µM, the TGI (SR leukemia) was over 100 µM and the TGI (SW-620 colon) was over 100 µM. The TGI (TK-10 renal) was over 100 µM, the TGI (U251 CNS) was over 100 µM and the TGI (UACC-257 melanoma) was over 100 µM. The TGI (UACC-62 melanoma) was over 100 µM, the TGI (UO-31 renal) was over 100 µM and the TGI (XF 498 CNS) was over 100 µM.
Molecule `C[C@]12CC[C@@H]3c4ccc(O)cc4CC[C@H]3[C@@H]1CC[C@@H]2OC(=O)CCC1CCCC1` has a TGI (786-0 renal) of 29.9 µM, a TGI (A498 renal) of 38.8 µM and a TGI (A549 NSCLC) of 32.2 µM. It also gave a TGI (ACHN renal) of 55.5 µM, a TGI (BT-549 breast) of 32.7 µM and a TGI (CAKI-1 renal) of 33.2 µM. The TGI (CCRF-CEM leukemia) was 38.4 µM, the TGI (COLO 205 colon) was 33.9 µM and the TGI (DLD-1 colon) was 98.6 µM. For the same molecule, the TGI (DMS 114 small cell lung) was 85.9 µM, the TGI (DMS 273 small cell lung) was 27.7 µM and the TGI (DU-145 prostate) was 26.9 µM. It also gave a TGI (EKVX NSCLC) of 21 µM, a TGI (HCC-2998 colon) of 37.8 µM and a TGI (HCT-116 colon) of 31.1 µM. For the same molecule, the TGI (HCT-15 colon) was 33.8 µM, the TGI (HL-60(TB) leukemia) was 34.8 µM and the TGI (HOP-18 NSCLC) was 59.6 µM. It also gave a TGI (HOP-62 NSCLC) of 33.9 µM, a TGI (HOP-92 NSCLC) of 47.7 µM and a TGI (HT29 colon) of 32 µM. It also gave a TGI (IGROV1 ovarian) of 33.4 µM, a TGI (K-562 leukemia) of 35.2 µM and a TGI (KM12 colon) of over 56.8 µM. For the same molecule, the TGI (KM20L2 colon) was 33.1 µM, the TGI (LOX IMVI melanoma) was 35.6 µM and the TGI (LXFL 529 NSCLC) was 32.1 µM. The TGI (M14 melanoma) was 43.4 µM, the TGI (M19-MEL melanoma) was 67.9 µM and the TGI (MALME-3M melanoma) was 55.3 µM. The TGI (MCF7 breast) was 31 µM, the TGI (MDA-MB-231 breast) was 32.2 µM and the TGI (MDA-MB-435) was 21.7 µM. It also gave a TGI (MDA-N) of 20.2 µM, a TGI (MOLT-4 leukemia) of 35.2 µM and a TGI (NCI-H226 lung) of 36.6 µM. For the same molecule, the TGI (NCI-H23 lung) was 34.6 µM, the TGI (NCI-H460 lung) was 36.3 µM and the TGI (NCI-H522 lung) was 32.6 µM. It also gave a TGI (NCI/ADR-RES ovarian) of 32.9 µM, a TGI (OVCAR-3 ovarian) of 30.1 µM and a TGI (OVCAR-4 ovarian) of 32 µM. For the same molecule, the TGI (OVCAR-5 ovarian) was over 57.2 µM, the TGI (OVCAR-8 ovarian) was 31.7 µM and the TGI (PC-3 prostate) was 31.3 µM. The TGI (RPMI-8226 leukemia) was 38.3 µM, the TGI (RXF 393 renal) was 28.3 µM and the TGI (SF-268 CNS) was 41.1 µM. For the same molecule, the TGI (SF-295 CNS) was 31.8 µM, the TGI (SF-539 CNS) was 40.5 µM and the TGI (SK-MEL-2 melanoma) was over 56.4 µM. For the same molecule, the TGI (SK-MEL-28 melanoma) was 34.2 µM, the TGI (SK-MEL-5 melanoma) was 33.4 µM and the TGI (SK-OV-3 ovarian) was 38.3 µM. For the same molecule, the TGI (SN12C renal) was 31.2 µM, the TGI (SNB-19 CNS) was 31.3 µM and the TGI (SNB-78 CNS) was over 100 µM. The TGI (SR leukemia) was 39.3 µM, the TGI (SW-620 colon) was 38.1 µM and the TGI (T-47D breast) was 28.4 µM. The TGI (TK-10 renal) was 48.4 µM, the TGI (U251 CNS) was 33.5 µM and the TGI (UACC-257 melanoma) was over 57.7 µM. The TGI (UACC-62 melanoma) was 27.5 µM, the TGI (UO-31 renal) was 35.3 µM and the TGI (XF 498 CNS) was 40.9 µM.

From PubChem BioAssay (NCI)
